Results taken from ChEMBL document CHEMBL1130694, “Selective chemical modifications of polymyxin B” (Bioorg Med Chem Lett, 1998).
≈ marks a conversion by molar mass, not a printed value. Positions of bridges follow the written chain, without caps; N, C: chain ends. Non-standard residues stand in square brackets, D forms with d. Residues, ends and D or L forms follow the SMILES beside them. *: point of attachment. Heptanoyl(6-Me) = CC(C)CCCCC(=O)*; Dab = NCC[C@H](N)C(=O)O

Columns and labels:
Mus musculus = organism: Mus musculus; assay: Compound was tested for protection against Pseudomonas infection in mice; format: functional; settings: read-out: PD50
Pseudomonas = assay: Compound was tested for antibacterial activity against Pseudomonas organism; format: functional
Staphylococcus = assay: Compound was tested for antibacterial activity against Staphylococcus organism; format: functional
Escherichia coli = assay: Compound was tested for antibacterial activity against Escherichia coli organism; format: functional
[1] = Ratio of LD50 to PD50 was evaluated.; format: ADME, organism-based; settings: mouse, in vivo
[2] = Compound was tested for acute toxicity in mice upon intravenous administration; format: organism-based; settings: mouse, in vivo

Structure (SMILES) | MIC (Pseudomonas) [µg/mL] | MIC (Staphylococcus) [µg/mL] | MIC (Escherichia coli) [µg/mL] | ED50 (Mus musculus) [mg/kg] | selectivity ratio [1] | LD50 [2] [mg/kg]
CC(C)CCCCC(=O)N[C@@H](CCN)C(=O)N[C@H](C(=O)N[C@@H](CCN)C(=O)N[C@H]1CCNC(=O)[C@H]([C@@H](C)O)NC(=O)[C@H](CCN)NC(=O)[C@H](CCN)NC(=O)[C@H](CC(C)C)NC(=O)[C@@H](Cc2ccccc2)NC(=O)[C@H](CCN)NC1=O)[C@@H](C)O ({Heptanoyl(6-Me)}-[Dab]T[Dab][Dab][Dab][dF]L[Dab][Dab]T; lactam 4-C) [listing 1 of 2 here] | 0.051 (≈ 0.0429 µM) | 2.8 (≈ 2.35 µM) | 0.026 (≈ 0.0219 µM) | 2 |  | 
CSCC[C@H](N)C(=O)NCC[C@@H]1NC(=O)[C@H](CCN)NC(=O)[C@H](CC(C)C)NC(=O)[C@@H](Cc2ccccc2)NC(=O)[C@H](CCN)NC(=O)[C@@H](NC(=O)[C@H](CCN)NC(=O)[C@@H](NC(=O)[C@H](CCN)NC(=O)CCCCC(C)C)[C@@H](C)O)CCNC(=O)[C@H]([C@@H](C)O)NC1=O | 0.416 (≈ 0.315 µM) | 5.65 (≈ 4.28 µM) | 0.77 (≈ 0.583 µM) |  |  | 
CC(C)CCCCC(=O)N[C@@H](CCN)C(=O)N[C@H](C(=O)N[C@@H](CCN)C(=O)N[C@H]1CCNC(=O)[C@H]([C@@H](C)O)NC(=O)[C@H](CCN(CC(=O)O)CC(=O)O)NC(=O)[C@H](CCN)NC(=O)[C@H](CC(C)C)NC(=O)[C@@H](Cc2ccccc2)NC(=O)[C@H](CCN)NC1=O)[C@@H](C)O | 0.318 (≈ 0.244 µM) | 22.6 (≈ 17.3 µM) | 1.19 (≈ 0.911 µM) |  |  | 
CC(C)CCCCC(=O)N[C@@H](CCN)C(=O)N[C@H](C(=O)N[C@@H](CCN)C(=O)N[C@H]1CCNC(=O)[C@H]([C@@H](C)O)NC(=O)[C@H](CCN(C)C)NC(=O)[C@H](CCN)NC(=O)[C@H](CC(C)C)NC(=O)[C@@H](Cc2ccccc2)NC(=O)[C@H](CCN)NC1=O)[C@@H](C)O | 0.456 (≈ 0.375 µM) | 16 (≈ 13.1 µM) | 0.537 (≈ 0.441 µM) |  |  | 
CCCCCCC(N)C(=O)NCC[C@@H]1NC(=O)[C@H](CCN)NC(=O)[C@H](CC(C)C)NC(=O)[C@@H](Cc2ccccc2)NC(=O)[C@H](CCN)NC(=O)[C@@H](NC(=O)[C@H](CCN)NC(=O)[C@@H](NC(=O)[C@H](CCN)NC(=O)CCCCC(C)C)[C@@H](C)O)CCNC(=O)[C@H]([C@@H](C)O)NC1=O (some centres not stated) | 0.051 (≈ 0.0383 µM) | 0.561 (≈ 0.422 µM) | 0.225 (≈ 0.169 µM) | 7 | 1.7 | 12
CC(C)CCCCC(=O)N[C@@H](CCN)C(=O)N[C@H](C(=O)N[C@@H](CCN)C(=O)N[C@H]1CCNC(=O)[C@H]([C@@H](C)O)NC(=O)[C@H](CCNC(=O)[C@@H](N)CCCCN)NC(=O)[C@H](CCN)NC(=O)[C@H](CC(C)C)NC(=O)[C@@H](Cc2ccccc2)NC(=O)[C@H](CCN)NC1=O)[C@@H](C)O | 0.032 (≈ 0.0243 µM) | 2.8 (≈ 2.13 µM) | 0.173 (≈ 0.131 µM) |  |  | 
CC(C)CCCCC(=O)N[C@@H](CCNC(=O)CN)C(=O)N[C@H](C(=O)N[C@@H](CCN)C(=O)N[C@H]1CCNC(=O)[C@H]([C@@H](C)O)NC(=O)[C@H](CCN)NC(=O)[C@H](CCN)NC(=O)[C@H](CC(C)C)NC(=O)[C@@H](Cc2ccccc2)NC(=O)[C@H](CCN)NC1=O)[C@@H](C)O [listing 1 of 2 here] | 0.033 (≈ 0.0265 µM) | 8 (≈ 6.42 µM) | 0.028 (≈ 0.0225 µM) | 7 |  | 
CCC(C)CCCCC(=O)NCC[C@@H]1NC(=O)[C@H](CCN)NC(=O)[C@H](CC(C)C)NC(=O)[C@@H](Cc2ccccc2)NC(=O)[C@H](CCN)NC(=O)[C@@H](NC(=O)[C@H](CCN)NC(=O)[C@@H](NC(=O)[C@H](CCN)NC(=O)CCCCC(C)C)[C@@H](C)O)CCNC(=O)[C@H]([C@@H](C)O)NC1=O (some centres not stated) | 2.18 (≈ 1.64 µM) | 0.7 (≈ 0.526 µM) | 3.1 (≈ 2.33 µM) |  |  | 
CC(C)CCCCC(=O)N[C@@H](CCN)C(=O)N[C@H](C(=O)N[C@@H](CCN)C(=O)N[C@H]1CCNC(=O)[C@H]([C@@H](C)O)NC(=O)[C@H](CCN)NC(=O)[C@H](CCN)NC(=O)[C@H](CC(C)C)NC(=O)[C@@H](Cc2ccccc2)NC(=O)[C@H](CCN)NC1=O)[C@@H](C)O ({Heptanoyl(6-Me)}-[Dab]T[Dab][Dab][Dab][dF]L[Dab][Dab]T; lactam 4-C) [listing 2 of 2 here] |  |  |  |  | 4.5 | 9
CCN(CC)CC[C@H](NC(=O)CCCCC(C)C)C(=O)N[C@H](C(=O)N[C@@H](CCN)C(=O)N[C@H]1CCNC(=O)[C@H]([C@@H](C)O)NC(=O)[C@H](CCN)NC(=O)[C@H](CCN)NC(=O)[C@H](CC(C)C)NC(=O)[C@@H](Cc2ccccc2)NC(=O)[C@H](CCN)NC1=O)[C@@H](C)O | 0.206 (≈ 0.165 µM) | 2.4 (≈ 1.93 µM) | 0.208 (≈ 0.167 µM) |  |  | 
CC(C)CCCCC(=O)N[C@@H](CCN)C(=O)N[C@H](C(=O)N[C@@H](CCN)C(=O)N[C@H]1CCNC(=O)[C@H]([C@@H](C)O)NC(=O)[C@H](CCNC(=O)[C@@H](N)CCCN=C(N)N)NC(=O)[C@H](CCN)NC(=O)[C@H](CC(C)C)NC(=O)[C@@H](Cc2ccccc2)NC(=O)[C@H](CCN)NC1=O)[C@@H](C)O | 0.03 (≈ 0.0223 µM) | 2 (≈ 1.49 µM) | 0.16 (≈ 0.119 µM) | 0.25 | 60 | 15
CCN(CC)CC[C@@H]1NC(=O)[C@H](CCN)NC(=O)[C@H](CC(C)C)NC(=O)[C@@H](Cc2ccccc2)NC(=O)[C@H](CCN)NC(=O)[C@@H](NC(=O)[C@H](CCN)NC(=O)[C@@H](NC(=O)[C@H](CCN)NC(=O)CCCCC(C)C)[C@@H](C)O)CCNC(=O)[C@H]([C@@H](C)O)NC1=O | 0.763 (≈ 0.613 µM) | 9.5 (≈ 7.63 µM) | 0.995 (≈ 0.799 µM) |  |  | 
CC(C)CCCCC(=O)N[C@@H](CCN)C(=O)N[C@H](C(=O)N[C@@H](CCN)C(=O)N[C@H]1CCNC(=O)[C@H]([C@@H](C)O)NC(=O)[C@H](CCNC(=O)[C@@H](N)CCC/N=C(/N)N[N+](=O)[O-])NC(=O)[C@H](CCN)NC(=O)[C@H](CC(C)C)NC(=O)[C@@H](Cc2ccccc2)NC(=O)[C@H](CCN)NC1=O)[C@@H](C)O | 2.6 (≈ 1.87 µM) | 1.2 (≈ 0.863 µM) | 1.3 (≈ 0.935 µM) |  |  | 
CC(C)CCCCC(=O)N[C@@H](CCNC(=O)CN)C(=O)N[C@H](C(=O)N[C@@H](CCN)C(=O)N[C@H]1CCNC(=O)[C@H]([C@@H](C)O)NC(=O)[C@H](CCN)NC(=O)[C@H](CCN)NC(=O)[C@H](CC(C)C)NC(=O)[C@@H](Cc2ccccc2)NC(=O)[C@H](CCN)NC1=O)[C@@H](C)O [listing 2 of 2 here] |  |  |  |  | 2.8 | 20
CC(C)CCCCC(=O)N[C@@H](CCNC(=O)[C@@H](N)CCCN=C(N)N)C(=O)N[C@H](C(=O)N[C@@H](CCN)C(=O)N[C@H]1CCNC(=O)[C@H]([C@@H](C)O)NC(=O)[C@H](CCN)NC(=O)[C@H](CCN)NC(=O)[C@H](CC(C)C)NC(=O)[C@@H](Cc2ccccc2)NC(=O)[C@H](CCN)NC1=O)[C@@H](C)O | 0.207 (≈ 0.154 µM) | 4.48 (≈ 3.33 µM) | 0.453 (≈ 0.337 µM) |  |  | 

Further lines, with some results ahead:

MIC (Pseudomonas) [µg/mL] | MIC (Staphylococcus) [µg/mL] | MIC (Escherichia coli) [µg/mL] | Structure (SMILES) | ED50 (Mus musculus) [mg/kg] | selectivity ratio [1] | LD50 [2] [mg/kg]
0.146 (≈ 0.12 µM) | 2.3 (≈ 1.89 µM) | 0.112 (≈ 0.092 µM) | CCNCC[C@H](NC(=O)CCCCC(C)C)C(=O)N[C@H](C(=O)N[C@@H](CCN)C(=O)N[C@H]1CCNC(=O)[C@H]([C@@H](C)O)NC(=O)[C@H](CCN)NC(=O)[C@H](CCN)NC(=O)[C@H](CC(C)C)NC(=O)[C@@H](Cc2ccccc2)NC(=O)[C@H](CCN)NC1=O)[C@@H](C)O |  |  | 
2.8 (≈ 2.27 µM) | 2.8 (≈ 2.27 µM) | 1.3 (≈ 1.06 µM) | CC(=O)NCC[C@H](NC(=O)CCCCC(C)C)C(=O)N[C@H](C(=O)N[C@@H](CCN)C(=O)N[C@H]1CCNC(=O)[C@H]([C@@H](C)O)NC(=O)[C@H](CCN)NC(=O)[C@H](CCN)NC(=O)[C@H](CC(C)C)NC(=O)[C@@H](Cc2ccccc2)NC(=O)[C@H](CCN)NC1=O)[C@@H](C)O |  |  | 
2.82 (≈ 2.18 µM) | 11.3 (≈ 8.75 µM) | 1.68 (≈ 1.3 µM) | CC(C)CCCCC(=O)N[C@@H](CCN)C(=O)N[C@H](C(=O)N[C@@H](CCN)C(=O)N[C@H]1CCNC(=O)[C@H]([C@@H](C)O)NC(=O)[C@H](CCNC(=O)[C@@H](N)CS)NC(=O)[C@H](CCN)NC(=O)[C@H](CC(C)C)NC(=O)[C@@H](Cc2ccccc2)NC(=O)[C@H](CCN)NC1=O)[C@@H](C)O |  |  | 
0.413 (≈ 0.339 µM) | 9.5 (≈ 7.8 µM) | 0.492 (≈ 0.404 µM) | CCNCC[C@@H]1NC(=O)[C@H](CCN)NC(=O)[C@H](CC(C)C)NC(=O)[C@@H](Cc2ccccc2)NC(=O)[C@H](CCN)NC(=O)[C@@H](NC(=O)[C@H](CCN)NC(=O)[C@@H](NC(=O)[C@H](CCN)NC(=O)CCCCC(C)C)[C@@H](C)O)CCNC(=O)[C@H]([C@@H](C)O)NC1=O |  |  | 
1.53 (≈ 1.23 µM) | 22.6 (≈ 18.1 µM) | 1.54 (≈ 1.23 µM) | CC(C)CCCCC(=O)N[C@@H](CCN)C(=O)N[C@H](C(=O)N[C@@H](CCN)C(=O)N[C@H]1CCNC(=O)[C@H]([C@@H](C)O)NC(=O)[C@H](CCNC(=O)CO)NC(=O)[C@H](CCN)NC(=O)[C@H](CC(C)C)NC(=O)[C@@H](Cc2ccccc2)NC(=O)[C@H](CCN)NC1=O)[C@@H](C)O |  |  | 
0.085 (≈ 0.0671 µM) | 9.5 (≈ 7.5 µM) | 0.454 (≈ 0.359 µM) | CC(C)CCCCC(=O)N[C@@H](CCN)C(=O)N[C@H](C(=O)N[C@@H](CCN)C(=O)N[C@H]1CCNC(=O)[C@H]([C@@H](C)O)NC(=O)[C@H](CCNC(=O)CCl)NC(=O)[C@H](CCN)NC(=O)[C@H](CC(C)C)NC(=O)[C@@H](Cc2ccccc2)NC(=O)[C@H](CCN)NC1=O)[C@@H](C)O |  |  | 
0.995 (≈ 0.765 µM) | 0.82 (≈ 0.631 µM) | 1.54 (≈ 1.18 µM) | CC(C)CCCCC(=O)N[C@@H](CCN)C(=O)N[C@H](C(=O)N[C@@H](CCN)C(=O)N[C@H]1CCNC(=O)[C@H]([C@@H](C)O)NC(=O)[C@H](CCNC(=O)C(Cl)Cl)NC(=O)[C@H](CCN)NC(=O)[C@H](CC(C)C)NC(=O)[C@@H](Cc2ccccc2)NC(=O)[C@H](CCN)NC1=O)[C@@H](C)O |  |  | 
